Format in all cases: biochemical
The target of one assay is T1, PIM-1 (Homo sapiens, UniProt P11309).
T1 construct: purchased Upstate 14-573
Briefly: Inhibition of kinase PIM-1 (Kinase-Glo). The following applies: PIM-1 0.625 μg/ml, 10 μM ATP, forty minutes at 30° C. The gist of the method:
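PIM-1 (0.625 μg/ml) in MOPS/NaOH pH 7 with Mg acetate was run with 70 μM S6 kinase/Rsk2 peptide and 10 μM ATP, with compound at 10 nM–30 μM final.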
A general note: Kinase-Glo measures the ATP left after a reaction by luminescence.

The target of another assay is T2, RET (Homo sapiens, UniProt P07949).
T2 construct: purchased Upstate 14-570MG
T2 sequence (P07949 29-1114): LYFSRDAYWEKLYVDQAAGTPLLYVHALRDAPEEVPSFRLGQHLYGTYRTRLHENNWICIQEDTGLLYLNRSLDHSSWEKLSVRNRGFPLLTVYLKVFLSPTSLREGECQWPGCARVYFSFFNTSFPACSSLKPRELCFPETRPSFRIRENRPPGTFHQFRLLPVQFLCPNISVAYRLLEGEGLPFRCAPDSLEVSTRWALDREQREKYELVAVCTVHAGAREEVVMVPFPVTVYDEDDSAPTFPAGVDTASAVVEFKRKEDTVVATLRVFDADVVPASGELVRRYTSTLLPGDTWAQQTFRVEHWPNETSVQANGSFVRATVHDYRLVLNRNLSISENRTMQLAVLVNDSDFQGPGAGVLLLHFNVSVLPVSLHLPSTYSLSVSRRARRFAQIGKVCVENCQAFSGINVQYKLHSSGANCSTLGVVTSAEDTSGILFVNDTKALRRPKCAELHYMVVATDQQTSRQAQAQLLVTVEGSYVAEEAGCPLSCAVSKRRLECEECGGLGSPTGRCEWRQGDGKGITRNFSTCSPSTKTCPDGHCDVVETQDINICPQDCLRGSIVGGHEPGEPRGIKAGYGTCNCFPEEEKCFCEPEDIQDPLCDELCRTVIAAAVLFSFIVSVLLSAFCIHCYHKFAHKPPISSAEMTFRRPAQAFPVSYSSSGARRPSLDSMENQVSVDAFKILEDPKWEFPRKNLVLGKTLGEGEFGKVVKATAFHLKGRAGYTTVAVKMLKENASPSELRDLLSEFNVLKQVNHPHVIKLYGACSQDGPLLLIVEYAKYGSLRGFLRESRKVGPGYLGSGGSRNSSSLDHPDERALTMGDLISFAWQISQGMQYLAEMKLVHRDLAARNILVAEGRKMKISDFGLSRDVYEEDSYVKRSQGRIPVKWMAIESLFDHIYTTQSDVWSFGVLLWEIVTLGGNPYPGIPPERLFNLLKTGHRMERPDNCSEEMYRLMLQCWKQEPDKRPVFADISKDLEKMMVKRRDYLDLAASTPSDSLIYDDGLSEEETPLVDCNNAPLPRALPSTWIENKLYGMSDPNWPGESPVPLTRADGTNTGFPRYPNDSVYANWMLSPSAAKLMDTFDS
Briefly: Inhibition of RET kinase activity, recombinant RET method (Kinase-Glo). The following applies: RET 2 μg/ml, poly-EY4 substrate, 20 μM ATP, two hours at 30° C. In short, it runs like this: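 Recombinant RET at 2 μg/ml in 20 mM MOPS/NaOH pH 7.0, 1 mM EDTA, 5% glycerol, 0.01% Brij35, 0.1% 2-mercaptoethanol, 1 mg/ml BSA; compounds 10 nM–30 μM final.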

The target in the next assay is ALK (Homo sapiens, UniProt Q9UM73). Briefly: Inhibition of kinase ALK (PLCγ1-GST substrate, anti-phosphotyrosine ELISA). The following applies: ALK 180 ng/ml, 250 μM ATP, 30 minutes at 30° C. As to the method:
Incubation is carried out for 30 minutes at 30° C. with agitation.
The signal is read in luminescent mode using a luminometer.
(In an ELISA, binding on a coated surface is turned into a signal by an enzyme label.)

The target in another assay is T3, TrkB (Homo sapiens, UniProt Q16620).
T3 construct: purchased Upstate 14-507
T3 sequence (Q16620 32-822): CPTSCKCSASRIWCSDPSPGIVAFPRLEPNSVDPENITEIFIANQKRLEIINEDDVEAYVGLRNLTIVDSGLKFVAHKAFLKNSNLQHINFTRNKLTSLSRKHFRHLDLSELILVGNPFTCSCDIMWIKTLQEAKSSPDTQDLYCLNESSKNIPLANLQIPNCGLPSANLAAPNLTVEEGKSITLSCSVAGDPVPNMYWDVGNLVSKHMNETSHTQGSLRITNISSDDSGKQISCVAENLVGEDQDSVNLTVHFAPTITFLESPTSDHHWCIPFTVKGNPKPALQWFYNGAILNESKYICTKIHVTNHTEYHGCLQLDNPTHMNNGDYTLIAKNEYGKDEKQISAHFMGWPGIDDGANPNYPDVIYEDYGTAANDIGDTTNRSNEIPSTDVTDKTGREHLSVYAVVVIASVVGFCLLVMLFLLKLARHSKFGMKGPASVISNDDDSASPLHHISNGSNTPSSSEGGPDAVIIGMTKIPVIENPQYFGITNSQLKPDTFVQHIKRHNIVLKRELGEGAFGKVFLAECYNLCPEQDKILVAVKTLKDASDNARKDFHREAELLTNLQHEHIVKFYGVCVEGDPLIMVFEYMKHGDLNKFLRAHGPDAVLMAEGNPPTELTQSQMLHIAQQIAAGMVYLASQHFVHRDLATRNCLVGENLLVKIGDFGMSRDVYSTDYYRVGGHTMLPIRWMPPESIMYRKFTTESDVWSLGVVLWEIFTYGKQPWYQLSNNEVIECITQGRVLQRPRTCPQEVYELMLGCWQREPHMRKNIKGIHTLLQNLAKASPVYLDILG
Briefly: Inhibition of kinase TrkB (Kinase-Glo). As to conditions: TrkB 4 μg/ml, 40 μM ATP, two hours at 30° C. How it is done:
Protein TrkB (Upstate 14-507; batch #25578U) is incubated at a concentration of 4 μg/ml in a buffer containing 8 mM of MOPS/NaOH pH7, 0.2 mM EDTA, 40 mM MgAc (Sigma #229768), 1 mM DTT (Fluka #43816), NaOV 1 mM, 25 mM 2-glycerolphosphate (Sigma #G9891), in the presence of 2.5 mg/ml of peptide substrate poly-EY (Upstate #P0275), and 40 μM of ATP.
The dilution buffer for TrkB is as follows: 20 mM MOPS/NaOH pH7, 1 mM EDTA, 5% glycerol, 0.01% Brij35, 0.1% 2-mercapto, 1 mg/ml BSA.
(§1) The compound to be tested is first added to the enzyme to give a reaction volume of 50 μl. The dilution of the compounds of the invention is distributed so as to obtain a scale of final concentrations between 10 nM and 30 μM.
(§2) After incubation of the reaction mixture for two hours at 30° C., the level of ATP that remains is assayed using the Kinase-Glo Luminescent Kinase Assay (Promega #V6712) according to the conditions recommended by the supplier. The luminescence induced is read in a plate reader (Envision-Perkin Elmer).

The target of another assay is T4, TrkA (Homo sapiens, UniProt P04629).
T4 construct: purchased Upstate 14-571
T4 sequence (P04629 33-796): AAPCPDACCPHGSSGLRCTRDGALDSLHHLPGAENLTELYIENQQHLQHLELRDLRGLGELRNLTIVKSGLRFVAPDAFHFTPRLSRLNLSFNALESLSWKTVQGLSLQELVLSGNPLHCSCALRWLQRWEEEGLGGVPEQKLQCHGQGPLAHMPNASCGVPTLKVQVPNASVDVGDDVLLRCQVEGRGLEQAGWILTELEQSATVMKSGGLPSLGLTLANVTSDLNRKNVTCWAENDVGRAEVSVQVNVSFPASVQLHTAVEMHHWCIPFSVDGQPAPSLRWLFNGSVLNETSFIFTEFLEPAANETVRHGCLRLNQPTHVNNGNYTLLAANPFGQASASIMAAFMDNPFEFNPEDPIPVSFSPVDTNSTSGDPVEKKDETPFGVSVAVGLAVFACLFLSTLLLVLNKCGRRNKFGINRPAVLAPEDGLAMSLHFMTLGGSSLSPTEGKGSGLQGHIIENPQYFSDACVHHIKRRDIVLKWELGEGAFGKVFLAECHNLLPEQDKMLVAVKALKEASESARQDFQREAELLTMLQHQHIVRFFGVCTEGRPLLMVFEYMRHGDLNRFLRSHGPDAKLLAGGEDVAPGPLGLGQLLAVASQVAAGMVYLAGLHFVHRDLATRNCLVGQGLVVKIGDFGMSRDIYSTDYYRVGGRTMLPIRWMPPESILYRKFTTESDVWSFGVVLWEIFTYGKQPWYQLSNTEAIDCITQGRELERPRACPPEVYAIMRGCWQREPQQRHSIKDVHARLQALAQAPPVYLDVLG
Briefly: Inhibition of kinase TrkA (Kinase-Glo). The following applies: TrkA 4 μg/ml, 30 μM ATP, two hours at 30° C. How it is done: Protein TrkA (Upstate 14-571; batch #25634U) is incubated at a concentration of 4 μg/ml in a buffer containing 8 mM of MOPS/NaOH pH7, 0.2 mM EDTA, 40 mM MgAc (Sigma #229768), 1 mM DTT (Fluka #43816), NaOV 1 mM, 0.01% Triton Tx100, in the presence of 1 mg/ml of peptide substrate poly-EY (Upstate #P0275), and 30 μM of ATP.
The dilution buffer for TrkA is as follows: 20 mM MOPS/NaOH pH7, 1 mM EDTA, 5% glycerol, 0.01% Brij35, 0.1% 2-mercapto, 1 mg/ml BSA.
as §1, §2

Counter-ions that a name gives are not always drawn. A value given as a limit tells only on which side of the number the result lay.

T1 sequence (P11309 whole entry): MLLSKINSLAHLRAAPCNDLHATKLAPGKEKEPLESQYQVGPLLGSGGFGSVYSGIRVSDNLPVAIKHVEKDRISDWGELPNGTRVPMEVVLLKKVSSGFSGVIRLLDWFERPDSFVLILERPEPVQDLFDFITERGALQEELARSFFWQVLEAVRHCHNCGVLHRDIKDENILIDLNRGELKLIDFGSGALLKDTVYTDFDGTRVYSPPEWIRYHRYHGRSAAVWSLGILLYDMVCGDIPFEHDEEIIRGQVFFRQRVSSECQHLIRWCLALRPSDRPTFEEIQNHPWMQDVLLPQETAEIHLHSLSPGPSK
Sequence of ALK (Q9UM73 19-1620, species assumed): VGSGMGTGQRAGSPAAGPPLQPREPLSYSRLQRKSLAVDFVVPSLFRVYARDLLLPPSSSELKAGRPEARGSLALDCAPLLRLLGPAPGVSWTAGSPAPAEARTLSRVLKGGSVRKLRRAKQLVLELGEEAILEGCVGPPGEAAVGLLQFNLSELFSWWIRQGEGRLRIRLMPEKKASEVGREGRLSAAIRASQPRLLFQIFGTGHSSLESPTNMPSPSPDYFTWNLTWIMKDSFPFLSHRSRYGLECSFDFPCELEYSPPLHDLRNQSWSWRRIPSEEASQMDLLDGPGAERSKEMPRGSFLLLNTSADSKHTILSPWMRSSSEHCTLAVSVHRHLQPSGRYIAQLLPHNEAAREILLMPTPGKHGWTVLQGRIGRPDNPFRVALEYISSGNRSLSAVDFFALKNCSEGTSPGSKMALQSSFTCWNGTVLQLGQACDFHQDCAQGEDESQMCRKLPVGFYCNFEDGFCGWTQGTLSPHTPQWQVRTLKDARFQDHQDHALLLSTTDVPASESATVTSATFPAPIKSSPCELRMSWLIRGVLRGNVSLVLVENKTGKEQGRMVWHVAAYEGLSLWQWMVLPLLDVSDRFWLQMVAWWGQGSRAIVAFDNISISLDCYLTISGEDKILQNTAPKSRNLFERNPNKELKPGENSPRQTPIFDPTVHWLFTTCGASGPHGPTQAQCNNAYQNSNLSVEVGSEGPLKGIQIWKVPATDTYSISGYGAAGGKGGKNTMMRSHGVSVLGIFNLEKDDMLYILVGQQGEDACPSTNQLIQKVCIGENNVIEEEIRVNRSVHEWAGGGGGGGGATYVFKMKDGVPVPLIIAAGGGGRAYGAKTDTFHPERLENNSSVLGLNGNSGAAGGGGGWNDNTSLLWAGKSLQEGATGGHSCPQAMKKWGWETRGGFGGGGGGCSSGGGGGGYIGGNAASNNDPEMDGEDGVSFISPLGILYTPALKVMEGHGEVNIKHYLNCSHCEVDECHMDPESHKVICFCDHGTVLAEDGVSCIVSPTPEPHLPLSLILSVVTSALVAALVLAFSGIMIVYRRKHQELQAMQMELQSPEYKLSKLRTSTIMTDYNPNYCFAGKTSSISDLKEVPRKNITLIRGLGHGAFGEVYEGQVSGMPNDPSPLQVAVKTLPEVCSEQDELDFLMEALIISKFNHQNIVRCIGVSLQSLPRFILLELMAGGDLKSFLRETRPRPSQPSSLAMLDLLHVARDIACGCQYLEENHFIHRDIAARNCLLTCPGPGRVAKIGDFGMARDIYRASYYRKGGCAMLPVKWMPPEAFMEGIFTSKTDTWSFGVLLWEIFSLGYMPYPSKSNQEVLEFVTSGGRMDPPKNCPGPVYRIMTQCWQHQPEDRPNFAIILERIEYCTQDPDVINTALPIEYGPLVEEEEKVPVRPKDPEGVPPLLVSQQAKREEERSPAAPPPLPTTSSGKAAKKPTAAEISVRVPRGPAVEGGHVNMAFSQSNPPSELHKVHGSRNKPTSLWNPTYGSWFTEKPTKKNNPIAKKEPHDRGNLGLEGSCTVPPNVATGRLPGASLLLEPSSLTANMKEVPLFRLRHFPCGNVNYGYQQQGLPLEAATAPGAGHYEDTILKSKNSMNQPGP

Regarding `CCOC(=O)c1c[nH]c2c(=O)[nH]c3ccc(S(=O)(=O)NCCCN(C)C)cc3c12` [Compound 32, 8-(3-Dimethylamino-propylsulfamoyl)-4-oxo-4,5-dihydro-3H-pyrrolo[2,3-c]quinoline-1-ethyl carboxylate], the figures for the concentration for half-maximal inhibition (IC50) against PIM-1, on RET and on ALK were 10000 to 100000 nM, 100 to 1000 nM and 10000 to 100000 nM, respectively.

In the case of `CCOC(=O)c1c[nH]c2c(=O)[nH]c3ccc(S(=O)(=O)NCCCCN)cc3c12` [Compound 33, 8-(4-Amino-butylsulfamoyl)-4-oxo-4,5-dihydro-3H-pyrrolo[2,3-c]quinoline-1-ethyl carboxylate], the results for the half-inhibitory concentration (IC50) on PIM-1, on RET and against ALK were 10000 to 100000 nM, 100 to 1000 nM and 1000 to 10000 nM, respectively.

For the compound `CCOC(=O)c1c[nH]c2c(=O)[nH]c3ccc(S(=O)(=O)NC4CCNCC4)cc3c12` [Compound 91, 4-oxo-8-(piperidin-4-ylsulfamoyl)-4,5-dihydro-3H-pyrrolo[2,3-c]quinoline-1-ethyl carboxylate], the IC50 at PIM-1 fell in the range of 1000 to 10000 nM; at RET it was 100 to 1000 nM; at ALK, 100 to 1000 nM.

In the case of `CCOC(=O)c1c[nH]c2c(=O)[nH]c3ccc(S(=O)(=O)N4CC5CNCC5C4)cc3c12` (stereo not shown) [Compound 93, 8-(Octahydro-pyrrolo[3,4-c]pyrrole-2-sulfonyl)-4-oxo-4,5-dihydro-3H-pyrrolo[2,3-c]quinoline-1-ethyl carboxylate], the IC50 against PIM-1 fell in the range of 1000 to 10000 nM; on RET it was 100 to 1000 nM; on ALK it was 100 to 1000 nM.

In the case of `CCOC(=O)c1c[nH]c2c(=O)[nH]c3ccc(S(=O)(=O)NC4CN5CCC4CC5)cc3c12` (stereo not shown) [Compound 94, 8-(1-Azabicyclo[2.2.2]oct-3-ylsulfamoyl)-4-oxo-4,5-dihydro-3H-pyrrolo[2,3-c]quinoline-1-ethyl carboxylate], the IC50 at RET and on ALK was 100 to 1000 nM throughout.

As for `CCOC(=O)c1c[nH]c2c(=O)[nH]c3ccc(S(=O)(=O)NC4CC4)cc3c12` [Compound 123, 8-Cyclopropylsulfamoyl-4-oxo-4,5-dihydro-3H-pyrrolo[2,3-c]quinoline-1-ethyl carboxylate], the values for the IC50 at RET and against ALK were 100 to 1000 nM and 1000 to 10000 nM, respectively.

For `CCCOC(=O)c1c[nH]c2c(=O)[nH]c3ccc(S(=O)(=O)N(C)C4CN(C(c5ccccc5)c5ccccc5)C4)cc3c12` [Compound 130, 8-[(1-Benzhydryl-azetidin-3-yl)-methyl-sulfamoyl]-4-oxo-4,5-dihydro-3H-pyrrolo[2,3-c]quinoline-1-propyl carboxylate], the IC50 at RET and against ALK was 100 to 1000 nM in each case.

Turning to `CCCOC(=O)c1c[nH]c2c(=O)[nH]c3ccc(S(=O)(=O)N(CC(C)(C)NC)C4CC4)cc3c12` [Compound 141, 8-[Cyclopropyl-(2-methyl-2-methylamino-propyl)-sulfamoyl]-4-oxo-4,5-dihydro-3H-pyrrolo[2,3-c]quinoline-1-propyl carboxylate hydrochloride], the IC50 at RET and at ALK was 100 to 1000 nM each time.

In the case of `CCCOC(=O)c1c[nH]c2c(=O)[nH]c3ccc(S(=O)(=O)N(C[C@@H]4CCCN4)C4CC4)cc3c12` [Compound 144, (S)-8-(Cyclopropyl-pyrrolidin-2-ylmethyl-sulfamoyl)-4-oxo-4,5-dihydro-3H-pyrrolo[2,3-c]quinoline-1-propyl carboxylate hydrochloride], the IC50 at RET was less than 100 nM; against ALK, 100 to 1000 nM.

As for `CCCOC(=O)c1c[nH]c2c(=O)[nH]c3ccc(S(=O)(=O)N(C[C@@H]4CCCN4C)C4CC4)cc3c12` [Compound 145, (S)-8-[Cyclopropyl-(1-methyl-pyrrolidin-2-ylmethyl)sulfamoyl]-4-oxo-4,5-dihydro-3H-pyrrolo[2,3-c]quinoline-1-propyl carboxylate], the IC50 was 100 to 1000 nM at RET and 1000 to 10000 nM at ALK.

Consider `CCCOC(=O)c1c[nH]c2c(=O)[nH]c3ccc(S(=O)(=O)N(C[C@@H]4CCCN4)C(C)C)cc3c12` [Compound 149, (S)-8-(Isopropyl-pyrrolidin-2-ylmethyl-sulfamoyl)-4-oxo-4,5-dihydro-3H-pyrrolo[2,3-c]quinoline-1-propyl carboxylate hydrochloride], for which the values for the IC50 on RET and against ALK were less than 100 nM and 100 to 1000 nM, respectively.

Consider `C#CCN(C[C@@H]1CCCN1)S(=O)(=O)c1ccc2[nH]c(=O)c3[nH]cc(C(=O)OCCC)c3c2c1` [Compound 150, (S)-4-Oxo-8-(prop-2-ynyl-pyrrolidin-2-ylmethyl-sulfamoyl)-4,5-dihydro-3H-pyrrolo[2,3-c]quinoline-1-propyl carboxylate hydrochloride], for which the IC50 at RET was less than 100 nM; on ALK it was 100 to 1000 nM.

With `CCCOC(=O)c1c[nH]c2c(=O)[nH]c3ccc(S(=O)(=O)N(C[C@H](C)N)C4CC4)cc3c12` [Compound 153, (S)-8-[(2-Amino-propyl)-cyclopropyl-sulfamoyl]-4-oxo-4,5-dihydro-3H-pyrrolo[2,3-c]quinoline-1-propyl carboxylate hydrochloride], the values for the IC50 on RET and against ALK were less than 100 nM and 100 to 1000 nM, respectively.

For the compound `CCCOC(=O)c1c[nH]c2c(=O)[nH]c3ccc(S(=O)(=O)N(C[C@@H](C)N)C4CC4)cc3c12` [Compound 155, (R)-8-[(2-Amino-propyl)-cyclopropyl-sulfamoyl]-4-oxo-4,5-dihydro-3H-pyrrolo[2,3-c]quinoline-1-propyl carboxylate hydrochloride], the concentration for half-maximal inhibition (IC50) was less than 100 nM at RET and 100 to 1000 nM on ALK.

As to `CCCOC(=O)c1c[nH]c2c(=O)[nH]c3ccc(S(=O)(=O)N(C)CC(N)=O)cc3c12` [Compound 177, 8-(Carbamoylmethyl-methyl-sulfamoyl)-4-oxo-4,5-dihydro-3H-pyrrolo[2,3-c]quinoline-1-propyl carboxylate], the IC50 on RET and against ALK was 100 to 1000 nM each time.

With `CCOC(=O)c1c[nH]c2c(=O)[nH]c3ccc(C(=O)N(C[C@@H]4CCCN4)C4CC4)cc3c12` [Compound 219, (S)-8-(cyclopropyl-pyrrolidin-2-ylmethyl-carbamoyl), 3-oxo-4,5-dihydro-3H-pyrrolo[2,3-c]quinoline-1-ethyl carboxylate hydrochloride], the IC50 on RET and against ALK was 1000 to 10000 nM throughout.

In the case of `CCOC(=O)c1c[nH]c2c(=O)[nH]c3ccc(-c4cccc(CO)c4)cc3c12` [Compound 240, 8-(3-Hydroxymethyl-phenyl)-4-oxo-4,5-dihydro-3H-pyrrolo[2,3-c]quinoline-1-ethyl carboxylate], the 50% inhibitory concentration (IC50) was in the range of 1000 to 10000 nM on TrkB, 1000 to 10000 nM on PIM-1, 100 to 1000 nM on RET and 1000 to 10000 nM at TrkA.

Consider `CCOC(=O)c1c[nH]c2c(=O)[nH]c3ccc(-c4cccc(CN(C)C)c4)cc3c12` [Compound 242, 8-(3-Dimethylaminomethyl-phenyl)-4-oxo-4,5-dihydro-3H-pyrrolo[2,3-c]quinoline-1-ethyl carboxylate], for which the half-maximal inhibitory concentration (IC50) against TrkB lay in the range of 10000 to 100000 nM; against PIM-1, 1000 to 10000 nM; at RET, 100 to 1000 nM; against TrkA, 10000 to 100000 nM.

For `CCNc1nccc(-c2ccc3[nH]c(=O)c4[nH]cc(C(=O)OCC)c4c3c2)n1` [Compound 264, 8-(2-Ethylamino-pyrimidin-4-yl)-4-oxo-4,5-dihydro-3H-pyrrolo[2,3-c]quinoline-1-ethyl carboxylate], the IC50 against TrkB lay in the range of 10000 to 100000 nM; at PIM-1 it was 1000 to 10000 nM; on RET, 100 to 1000 nM; on TrkA it was 10000 to 100000 nM.

`CCOC(=O)c1c[nH]c2c(=O)[nH]c3ccc(-c4cc[nH]n4)cc3c12` [Compound 282, 4-Oxo-8-(1H-pyrazol-3-yl)-4,5-dihydro-3H-pyrrolo[2,3-c]quinoline-1-ethyl carboxylate]: the concentration for half-maximal inhibition (IC50) lay in the range of 10000 to 100000 nM at TrkB, 10000 to 100000 nM at PIM-1, 100 to 1000 nM at RET and 10000 to 100000 nM against TrkA.

For orientation: IC50 means the concentration that inhibits the measured activity by half.

The values above are taken from US8426437B2, “Pyrroloquinoline derivatives and their use as protein kinases inhibitors” (Pierre Fabre Medicament, priority 2005, dated 2013).
